The text below walks through data of paper PMC10746543, “Design principles for cyclin K molecular glue degraders” (Nature Chemical Biology, 2023).

One assay has as its system HEK293T cells. The experiment in a line: Drug sensitivity assay (CellTiter-Glo viability) with or without MLN4924 pretreatment. It is filed as cell-based, human. Conditions: Supplementary Table 2; for EC50: Homo sapiens, HEK-293T, HEK293T viability, 72 h, compound alone, read-out: Cellular assays EC50; for Toxicity rescue: MLN4924-mediated cytotoxicity rescue, 10 µM used where n.d. The procedure, abridged:
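HEK293T–Cas9, 0.15 × 10^6 ml^−1; pretreat DMSO vs 100 nM MLN4924; drugs dispensed after 2 h; 3 d exposure; CellTiter-Glo; viability vs DMSO control.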
For orientation: Cellular ATP, detected with luciferase, serves as a proxy for viable cell number.

The next assay deals with T1, CDK12–cyclin K and DDB1 (Homo sapiens, UniProt Q16531+Q9NYV4, K965R).
T1 construct: His6–CDK12 (a.a. 713–1,052); full-length or beta-propeller B domain deletion (ΔBPB: a.a. 396–705 deleted) constructs of His6–DDB1ΔBPB, StrepII–Avi–DDB1, or His6–Spy–DDB1; made in house; host or cells: Trichoplusia ni High Five insect cells (baculovirus)
The experiment in a line: TR-FRET ternary complex formation assay (compound titration). It is filed as binding. The method, boiled down: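 Signal was the ratio of 520 nm to 490 nm fluorescence, measured after a 70 μs delay that reduced background.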
(In TR-FRET formats the signal depends on donor and acceptor labels being close together.)

Setting [1] is: in vitro complex formation, 50 nM CDK12–cyclin K, 100 nM DDB1, text and figures, read-out: TR-FRET EC50.
The mark [2] stands for this setting: source data sheet correlations, read-out: TR-FRET EC50.
Where [3] appears, read: compound concentration 0.468 nM.
[4] abbreviates: compound concentration 7.92001 nM.
[5] abbreviates: compound concentration 15.84 nM.
The mark [6] stands for this setting: compound concentration 30.96 nM.
Setting [7] is: compound concentration 62.6401 nM.
The mark [8] stands for this setting: compound concentration 79.2001 nM.
Where [9] appears, read: compound concentration 125.28 nM.
The mark [10] stands for this setting: compound concentration 158.4 nM.
Where [11] appears, read: compound concentration 244.8 nM.
[12] abbreviates: compound concentration 309.6 nM.
Setting [13] is: compound concentration 626.401 nM.
[14] abbreviates: compound concentration 993.601 nM.
[15] abbreviates: compound concentration 1252.8 nM.
The mark [16] stands for this setting: compound concentration 2001.6 nM.
[17] abbreviates: compound concentration 9936.01 nM.
[18] abbreviates: compound concentration 20016 nM.
Where [19] appears, read: sheet MOESM7, read-out: log TR-FRET EC50 (converted).

SMILES strings stand for the structures. Where “and” joins values, the source holds several entries; their conditions need not be identical. Equal values may be shown once. Read-outs that look alike come from different tables or passages of the source.

T1 sequence (Q9NYV4 713-1052 K965R): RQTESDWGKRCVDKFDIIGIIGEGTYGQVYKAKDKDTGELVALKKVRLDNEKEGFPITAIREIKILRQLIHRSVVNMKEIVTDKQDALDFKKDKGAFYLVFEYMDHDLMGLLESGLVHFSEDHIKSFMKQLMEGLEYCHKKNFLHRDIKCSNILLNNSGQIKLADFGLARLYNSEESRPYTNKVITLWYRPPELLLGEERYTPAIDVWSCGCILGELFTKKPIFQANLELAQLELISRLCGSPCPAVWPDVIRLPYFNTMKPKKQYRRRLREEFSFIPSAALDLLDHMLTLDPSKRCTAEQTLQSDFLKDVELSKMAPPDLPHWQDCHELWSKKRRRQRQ
T1 sequence (O75909 1-267 partner): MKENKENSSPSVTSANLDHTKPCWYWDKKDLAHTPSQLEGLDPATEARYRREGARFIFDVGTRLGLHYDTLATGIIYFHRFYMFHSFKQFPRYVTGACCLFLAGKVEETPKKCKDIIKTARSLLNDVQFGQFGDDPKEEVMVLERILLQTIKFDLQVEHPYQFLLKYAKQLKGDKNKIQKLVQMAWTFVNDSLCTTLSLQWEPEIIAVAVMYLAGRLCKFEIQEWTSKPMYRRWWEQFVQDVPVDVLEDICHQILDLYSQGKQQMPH
T1 sequence (Q16531 whole entry): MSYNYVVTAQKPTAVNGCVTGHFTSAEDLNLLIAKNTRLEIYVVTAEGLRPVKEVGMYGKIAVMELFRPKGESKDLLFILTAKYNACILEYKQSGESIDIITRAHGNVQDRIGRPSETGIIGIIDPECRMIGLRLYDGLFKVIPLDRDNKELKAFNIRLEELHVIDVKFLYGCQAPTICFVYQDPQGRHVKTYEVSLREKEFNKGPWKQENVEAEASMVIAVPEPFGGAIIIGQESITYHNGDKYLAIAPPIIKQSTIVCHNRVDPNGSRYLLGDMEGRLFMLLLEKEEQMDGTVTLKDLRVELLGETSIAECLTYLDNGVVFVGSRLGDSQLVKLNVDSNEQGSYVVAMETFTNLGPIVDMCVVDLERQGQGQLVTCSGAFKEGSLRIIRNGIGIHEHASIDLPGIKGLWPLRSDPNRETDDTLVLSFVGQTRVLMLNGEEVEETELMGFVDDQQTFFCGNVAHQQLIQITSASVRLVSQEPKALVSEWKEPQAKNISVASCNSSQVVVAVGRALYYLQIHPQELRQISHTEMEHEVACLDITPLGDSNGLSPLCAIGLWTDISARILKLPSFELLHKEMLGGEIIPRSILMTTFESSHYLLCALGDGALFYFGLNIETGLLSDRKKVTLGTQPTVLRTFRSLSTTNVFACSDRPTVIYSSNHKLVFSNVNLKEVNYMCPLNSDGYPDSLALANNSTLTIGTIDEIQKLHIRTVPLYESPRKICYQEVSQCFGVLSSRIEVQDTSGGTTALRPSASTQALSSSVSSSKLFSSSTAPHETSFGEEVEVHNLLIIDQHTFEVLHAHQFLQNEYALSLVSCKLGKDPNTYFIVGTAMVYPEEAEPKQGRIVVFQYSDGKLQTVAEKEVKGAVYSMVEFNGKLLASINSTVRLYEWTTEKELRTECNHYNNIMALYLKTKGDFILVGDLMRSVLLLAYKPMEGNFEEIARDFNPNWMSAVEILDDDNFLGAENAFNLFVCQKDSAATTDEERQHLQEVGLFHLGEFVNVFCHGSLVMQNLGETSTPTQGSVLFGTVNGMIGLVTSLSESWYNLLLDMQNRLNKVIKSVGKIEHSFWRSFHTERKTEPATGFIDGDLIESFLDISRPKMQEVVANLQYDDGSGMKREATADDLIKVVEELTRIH

`Cc1cc2nc(CNc3nc(N4CCN(C)CC4)nc4c(Br)cnn34)[nH]c2cc1C` [DS73, reference compound]: the EC50 was found to be 0.002 µM in the assay on HEK293T cells; 0.015 ± 0.001 µM on CDK12–cyclin K and DDB1 (setting [1]); 0.0153 µM at CDK12–cyclin K and DDB1 (setting [2]). In addition, the Toxicity rescue in the assay on HEK293T cells was found to be 850%. The “TR-FRET signal at compound concentration 0.468 nM” value at CDK12–cyclin K and DDB1 (compound concentration 0.468 nM, raw replicate titration data) was 0.2078 and 0.3464 and 0.3268 and 0.2028. The “TR-FRET signal at compound concentration 2.16 nM” value at CDK12–cyclin K and DDB1 (compound concentration 2.16 nM, raw replicate titration data) was 0.3181 and 0.4574 and 0.408 and 0.306. Also, the “TR-FRET signal at compound concentration 3.6 nM” value on CDK12–cyclin K and DDB1 (compound concentration 3.6 nM, raw replicate titration data) was 0.571 and 0.665 and 0.6145 and 0.5357. The “TR-FRET signal at compound concentration 7.92001 nM” value at CDK12–cyclin K and DDB1 (compound concentration 7.92001 nM, raw replicate titration data) was 1.164 and 1.12 and 0.9555 and 1.048. Further, at CDK12–cyclin K and DDB1 (compound concentration 15.84 nM, raw replicate titration data), the “TR-FRET signal at compound concentration 15.84 nM” value is 2.581 and 2.125 and 1.889 and 2.1704. On CDK12–cyclin K and DDB1 (compound concentration 30.96 nM, raw replicate titration data), the “TR-FRET signal at compound concentration 30.96 nM” value is 3.773 and 3.741 and 3.496 and 3.714. In addition, at CDK12–cyclin K and DDB1 (compound concentration 62.6401 nM, raw replicate titration data), the “TR-FRET signal at compound concentration 62.6401 nM” value was 3.949 and 4.21 and 4.046 and 3.965. Further, the “TR-FRET signal at compound concentration 125.28 nM” value on CDK12–cyclin K and DDB1 (compound concentration 125.28 nM, raw replicate titration data) is 3.981 and 4.358 and 4.135 and 3.99. The “TR-FRET signal at compound concentration 244.8 nM” value on CDK12–cyclin K and DDB1 (compound concentration 244.8 nM, raw replicate titration data) was 3.942 and 4.1851 and 4.076 and 4.006. Moreover, on CDK12–cyclin K and DDB1 (compound concentration 993.601 nM, raw replicate titration data), the “TR-FRET signal at compound concentration 993.601 nM” value is 4.043 and 4.296 and 4.229 and 3.955. In addition, the “TR-FRET signal at compound concentration 2001.6 nM” value on CDK12–cyclin K and DDB1 (compound concentration 2001.6 nM, raw replicate titration data) is 4.148 and 4.166 and 4.035 and 3.981.

In the case of `O=C(CSc1nnc2c(n1)[nH]c1ccccc12)Nc1ccc(Cl)cn1` [dCeMM2], the EC50 in the assay with HEK293T cells was 1.42 µM; at CDK12–cyclin K and DDB1 (setting [1]) it was 0.083 ± 0.004 µM; on CDK12–cyclin K and DDB1 (setting [19]) it was 0.0832 µM; on CDK12–cyclin K and DDB1 (setting [2]), 0.0832 µM. Besides, in the assay on HEK293T cells, the Toxicity rescue is 398%. The TR-FRET signal at CDK12–cyclin K and DDB1 (setting [3]) is 0.3316 and 0.3176; at CDK12–cyclin K and DDB1 (compound concentration 2.16 nM), 0.3609 and 0.3684; at CDK12–cyclin K and DDB1 (compound concentration 3.6 nM) it was 0.446 and 0.4561; at CDK12–cyclin K and DDB1 (compound concentration 4.68 nM), 0.2526 and 0.2575; on CDK12–cyclin K and DDB1 (setting [4]) it was 0.6045 and 0.6093; at CDK12–cyclin K and DDB1 (setting [5]), 0.8627 and 0.8782. Besides, the TR-FRET signal is 0.6074 and 0.6249 at CDK12–cyclin K and DDB1 (compound concentration 21.6 nM); 1.396 and 1.344 at CDK12–cyclin K and DDB1 (setting [6]); 1.231 and 1.287 at CDK12–cyclin K and DDB1 (compound concentration 36 nM); 1.902 and 1.956 on CDK12–cyclin K and DDB1 (setting [7]); 2.008 and 2.099 at CDK12–cyclin K and DDB1 (setting [8]); 2.531 and 2.559 at CDK12–cyclin K and DDB1 (setting [9]). For the same compound, the TR-FRET signal is 2.698 and 2.725 at CDK12–cyclin K and DDB1 (setting [10]); 3.133 and 3.085 on CDK12–cyclin K and DDB1 (setting [11]); 3.151 and 3.239 at CDK12–cyclin K and DDB1 (setting [12]); 3.549 and 3.629 on CDK12–cyclin K and DDB1 (setting [13]); 3.858 and 3.701 on CDK12–cyclin K and DDB1 (setting [14]); 3.752 and 3.846 at CDK12–cyclin K and DDB1 (setting [15]). Also, the TR-FRET signal was 3.973 and 3.947 at CDK12–cyclin K and DDB1 (setting [16]); 3.918 and 3.967 on CDK12–cyclin K and DDB1 (compound concentration 2448 nM); 3.896 and 3.914 on CDK12–cyclin K and DDB1 (setting [17]); 3.769 and 3.757 at CDK12–cyclin K and DDB1 (setting [18]).

For `O=C(CSc1nc2ccccc2[nH]1)Nc1ccc(Cl)cn1` [dCeMM3], the EC50 with HEK293T cells is greater than 10 µM; at CDK12–cyclin K and DDB1 (Supplementary Table 2, read-out: TR-FRET EC50 TR-FRET), 0.263 µM; on CDK12–cyclin K and DDB1 (setting [1]), 0.263 ± 0.013 µM; at CDK12–cyclin K and DDB1 (setting [19]), 0.263 µM. Further, the Toxicity rescue in the assay with HEK293T cells is on record as 0%. Also, the TR-FRET signal is 0.3108 and 0.3043 on CDK12–cyclin K and DDB1 (setting [3]); 0.3247 and 0.3252 on CDK12–cyclin K and DDB1 (compound concentration 2.16 nM); 0.3605 and 0.3572 on CDK12–cyclin K and DDB1 (compound concentration 3.6 nM); 0.1862 and 0.1908 on CDK12–cyclin K and DDB1 (compound concentration 4.68 nM); 0.4123 and 0.4112 on CDK12–cyclin K and DDB1 (setting [4]); 0.5374 and 0.5369 at CDK12–cyclin K and DDB1 (setting [5]). Further, the TR-FRET signal on CDK12–cyclin K and DDB1 (compound concentration 21.6 nM) was 0.3061 and 0.3287; on CDK12–cyclin K and DDB1 (setting [6]) it was 0.7082 and 0.7121; at CDK12–cyclin K and DDB1 (compound concentration 36 nM) it was 0.5639 and 0.6148; at CDK12–cyclin K and DDB1 (setting [7]) it was 1.02 and 1.082; at CDK12–cyclin K and DDB1 (setting [8]), 0.9671 and 1.036; on CDK12–cyclin K and DDB1 (setting [9]), 1.467 and 1.538. The TR-FRET signal at CDK12–cyclin K and DDB1 (setting [10]) was 1.482 and 1.527; at CDK12–cyclin K and DDB1 (setting [11]), 2.062 and 2.196; on CDK12–cyclin K and DDB1 (setting [12]), 2.068 and 2.079; at CDK12–cyclin K and DDB1 (setting [13]), 2.602 and 2.623; at CDK12–cyclin K and DDB1 (setting [14]) it was 3.096 and 3.149; on CDK12–cyclin K and DDB1 (setting [15]) it was 3.107 and 3.1711. The TR-FRET signal at CDK12–cyclin K and DDB1 (setting [16]) is 3.3098 and 3.397; at CDK12–cyclin K and DDB1 (compound concentration 2448 nM), 3.437 and 3.468; on CDK12–cyclin K and DDB1 (setting [17]), 3.722 and 3.727; at CDK12–cyclin K and DDB1 (setting [18]) it was 3.796 and 3.749.

Consider `Cc1ccc(C(=O)N2CSCC2C(=O)Nc2ncc(C)s2)o1` (stereo not drawn) [dCeMM4], for which the EC50 in the assay with HEK293T cells is 2.63 µM; on CDK12–cyclin K and DDB1 (setting [1]) it was 0.279 ± 0.012 µM; at CDK12–cyclin K and DDB1 (setting [19]), 0.279 µM; at CDK12–cyclin K and DDB1 (setting [2]) it was 0.279 µM. Moreover, in the assay on HEK293T cells, the Toxicity rescue is on record as 281%. In addition, the TR-FRET signal at CDK12–cyclin K and DDB1 (setting [3]) was 0.3047 and 0.3012; on CDK12–cyclin K and DDB1 (compound concentration 2.16 nM), 0.3265 and 0.3171; at CDK12–cyclin K and DDB1 (compound concentration 3.6 nM), 0.3554 and 0.3435; on CDK12–cyclin K and DDB1 (compound concentration 4.68 nM), 0.2015 and 0.1931; on CDK12–cyclin K and DDB1 (setting [4]), 0.4106 and 0.4108; on CDK12–cyclin K and DDB1 (setting [5]), 0.4953 and 0.4972. The TR-FRET signal on CDK12–cyclin K and DDB1 (compound concentration 21.6 nM) is 0.3497 and 0.3693; at CDK12–cyclin K and DDB1 (setting [6]) it was 0.6975 and 0.7097; at CDK12–cyclin K and DDB1 (compound concentration 36 nM), 0.6301 and 0.6713; at CDK12–cyclin K and DDB1 (setting [7]), 1.033 and 1.024; on CDK12–cyclin K and DDB1 (setting [8]), 1.054 and 1.091; on CDK12–cyclin K and DDB1 (setting [9]), 1.438 and 1.46. Also, the TR-FRET signal is 1.569 and 1.639 on CDK12–cyclin K and DDB1 (setting [10]); 2.039 and 2.019 on CDK12–cyclin K and DDB1 (setting [11]); 2.287 and 2.2 at CDK12–cyclin K and DDB1 (setting [12]); 2.739 and 2.6898 on CDK12–cyclin K and DDB1 (setting [13]); 3.062 and 3.005 on CDK12–cyclin K and DDB1 (setting [14]); 3.187 and 3.255 at CDK12–cyclin K and DDB1 (setting [15]). The TR-FRET signal at CDK12–cyclin K and DDB1 (setting [16]) was 3.478 and 3.348; at CDK12–cyclin K and DDB1 (compound concentration 2448 nM) it was 3.234 and 3.447; on CDK12–cyclin K and DDB1 (setting [17]), 3.901 and 3.875; on CDK12–cyclin K and DDB1 (setting [18]), 3.981 and 3.769.

For orientation: EC50 means the concentration that produces a half-maximal response.
